Patent US6737383B1, “Herbicidal oxadiazolidines” (priority 1999, dated 2004)

Assays:
purple nutsedge = test: Test B pre/postemergence purple nutsedge; format: in vivo, Cyperus rotundus
Procedure, shortened: (§1)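 Response is a visual 0-to-10 score relative to untreated plants, where 0 means no effect and 10 means complete control, taken twelve to sixteen days after application. Treatments went onto soil at planting and onto foliage of 1- to 4-leaf plants, using a surfactant-containing non-phytotoxic solvent.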

bedstraw = test: Test B pre/postemergence bedstraw; format: in vivo, Galium aparine
Procedure, shortened: as §1

soybean = test: Test B pre/postemergence soybean; format: in vivo, Glycine max
Procedure, shortened: as §1

surinam grass = test: Test B pre/postemergence surinam grass; format: in vivo, Brachiaria decumbens
Procedure, shortened: as §1

duck salad = test: Test B flood test duck salad; format: in vivo, Heteranthera limosa
Procedure, shortened: (§2)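 Read-out is a visual response score from 0 (no effect) to 10 (complete control), assigned by comparison with untreated controls. Treatment was applied at the 2-leaf stage, and plants stayed in the greenhouse for twelve to sixteen days before scoring.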

rice = test: Test B flood test rice; format: in vivo, Oryza sativa
Procedure, shortened: as §2

giant foxtail = test: Test B pre/postemergence giant foxtail; format: in vivo, Setaria faberii
Procedure, shortened: as §1

pigweed = test: Test B pre/postemergence pigweed; format: in vivo, Amaranthus retroflexus
Procedure, shortened: as §1

wild oat = test: Test B pre/postemergence wild oat; format: in vivo, Avena fatua
Procedure, shortened: as §1

corn = test: Test B pre/postemergence corn; format: in vivo, Zea mays
Procedure, shortened: as §1

velvetleaf = test: Test B pre/postemergence velvetleaf; format: in vivo, Abutilon theophrasti
Procedure, shortened: as §1

smallflower flatsedge = test: Test B flood test smallflower flatsedge; format: in vivo, Cyperus difformis
Procedure, shortened: as §2

wheat = test: Test B pre/postemergence wheat; format: in vivo, Triticum aestivum
Procedure, shortened: as §1

sugar beet = test: Test B pre/postemergence sugar beet; format: in vivo, Beta vulgaris
Procedure, shortened: as §1

rape = test: Test B pre/postemergence rape; format: in vivo, Brassica napus
Procedure, shortened: as §1

cocklebur = test: Test B pre/postemergence cocklebur; format: in vivo, Xanthium strumarium
Procedure, shortened: as §1

[1] = Postemergence, Rate 125 g/ha, scale of 0 to 10 where 0 is no effect and 10 is complete control
[2] = Postemergence, Rate 250 g/ha, scale 0 to 10, 0 no effect, 10 complete control
[3] = Postemergence, Rate 1000 g/ha, scale 0 to 10 (0 no effect, 10 complete control)
[4] = Preemergence, Rate 62 g/ha, scale 0 to 10 (0 no effect, 10 complete control)
[5] = Preemergence, Rate 125 g/ha, scale 0 to 10 (0 no effect, 10 complete control)
[6] = Preemergence, Rate 250 g/ha, scale of 0 to 10 where 0 is no effect and 10 is complete control
[7] = Preemergence, Rate 500 g/ha, scale 0 (no effect) to 10 (complete control)
[8] = Rate 62 g/ha, Postemergence, scale of 0 to 10 where 0 is no effect and 10 is complete control
[9] = Rate 500 g/ha, Postemergence, scale 0 to 10, 0 no effect, 10 complete control
[10] = Rate 1000 g/ha, Preemergence, scale 0 to 10 (0 no effect, 10 complete control)
[11] = Postemergence, Rate 62 g/ha, scale 0 to 10, 0 is no effect, 10 is complete control
[12] = Rate 125 g/ha, Postemergence, scale 0 to 10, 0 no effect, 10 complete control
[13] = Rate 250 g/ha, Postemergence, scale 0 to 10, 0 is no effect, 10 is complete control
[14] = Postemergence (flood test species), Rate 125 g/ha, scale of 0 to 10 where 0 is no effect and 10 is complete control
[15] = Rate 62 g/ha, Postemergence section, flood test species, scale of 0 to 10 where 0 is no effect and 10 is complete control
[16] = Rate 500 g/ha, listed under Postemergence (flood test species), scale 0 to 10, 0 no effect, 10 complete control
[17] = Rate 250 g/ha, Postemergence (flood test), scale 0 to 10, 0 is no effect, 10 is complete control
[18] = Preemergence, Rate 125 g/ha, 0 is no effect, 10 is complete control

CC(C)N(C(=O)n1oc(=O)n(C2CCCCC2C(F)(F)F)c1=O)c1ccc(F)cc1 (centres unmarked) [Compound 99]
Nutsedge plant response rating (purple nutsedge; [1]): 0 | Nutsedge plant response rating (purple nutsedge; [2]): 0 | Nutsedge plant response rating (purple nutsedge; [3]): 0 | Nutsedge plant response rating (purple nutsedge; [4]): 0 | Plant response rating, Nutsedge (purple nutsedge; [5]): 0 | Plant response rating, Nutsedge (purple nutsedge; [6]): 0 | Nutsedge plant response rating (purple nutsedge; [7]): 6 | Nutsedge plant response rating (purple nutsedge; [8]): 0 | Nutsedge plant response rating (purple nutsedge; [9]): 0 | Plant response rating, Nutsedge (purple nutsedge; [10]): 10 | Bedstraw plant response rating (bedstraw; [11]): 3 | Bedstraw plant response rating (bedstraw; [2]): 8 | Bedstraw plant response rating (bedstraw; [4]): 0 | Plant response rating, Bedstraw (bedstraw; [5]): 0 | Plant response rating, Bedstraw (bedstraw; [6]): 0 | Bedstraw plant response rating (bedstraw; [7]): 0 | Bedstraw plant response rating (bedstraw; [12]): 5 | Bedstraw plant response rating (bedstraw; [9]): 8 | Plant response rating, Bedstraw (bedstraw; [10]): 0 | Soybean plant response rating (soybean; [1]): 2 | Soybean plant response rating (soybean; [3]): 3 | Soybean plant response rating (soybean; [4]): 0 | Plant response rating, Soybean (soybean; [5]): 0 | Plant response rating, Soybean (soybean; [6]): 0 | Soybean plant response rating (soybean; [7]): 0 | Soybean plant response rating (soybean; [8]): 2 | Plant response rating, Soybean (soybean; [13]): 3 | Soybean plant response rating (soybean; [9]): 4 | Plant response rating, Soybean (soybean; [10]): 2 | B. signalgrass plant response rating (surinam grass; [11]): 0 | B. signalgrass plant response rating (surinam grass; [2]): 0 | B. signalgrass plant response rating (surinam grass; [3]): 4 | B. signalgrass plant response rating (surinam grass; [4]): 0 | Plant response rating, B. signalgrass (surinam grass; [5]): 0 | Plant response rating, B. signalgrass (surinam grass; [6]): 2 | B. signalgrass plant response rating (surinam grass; [7]): 3 | B. signalgrass plant response rating (surinam grass; [12]): 0 | B. signalgrass plant response rating (surinam grass; Rate 500 g/ha, Postemergence, scale of 0 to 10 where 0 is no effect and 10 is complete control): 2 | Plant response rating, B. signalgrass (surinam grass; [10]): 6 | Ducksalad plant response rating (duck salad; [14]): 0 | Ducksalad plant response rating (duck salad; [3]): 3 | Ducksalad plant response rating (duck salad; [15]): 0 | Ducksalad plant response rating (duck salad; [16]): 2 | Ducksalad plant response rating (duck salad; flood test, listed under Postemergence, Rate 250 g/ha, scale 0 to 10, 0 no effect, 10 complete control): 2 | Rice plant response rating (rice; [14]): 0 | Rice plant response rating (rice; [3]): 0 | Rice plant response rating (rice; [15]): 0 | Plant response rating, Rice (rice; [17]): 0 | Rice plant response rating (rice; [16]): 0 | Giant foxtail plant response rating (giant foxtail; [1]): 0 | Giant foxtail plant response rating (giant foxtail; [2]): 2 | Giant foxtail plant response rating (giant foxtail; [3]): 2 | Plant response rating, Giant foxtail (giant foxtail; [5]): 10 | Plant response rating, Giant foxtail (giant foxtail; [6]): 10 | Giant foxtail plant response rating (giant foxtail; [7]): 10 | Giant foxtail plant response rating (giant foxtail; [8]): 0 | Giant foxtail plant response rating (giant foxtail; [9]): 7 | Plant response rating, Giant foxtail (giant foxtail; [10]): 10 | Redroot pigweed plant response rating (pigweed; [1]): 4 | Redroot pigweed plant response rating (pigweed; [3]): 7 | Redroot pigweed plant response rating (pigweed; [4]): 0 | Plant response rating, Redroot pigweed (pigweed; [5]): 0 | Plant response rating, Redroot pigweed (pigweed; [6]): 4 | Redroot pigweed plant response rating (pigweed; [7]): 10 | Redroot pigweed plant response rating (pigweed; [8]): 3 | Plant response rating, Redroot pigweed (pigweed; [13]): 5 | Redroot pigweed plant response rating (pigweed; [9]): 7 | Plant response rating, Redroot pigweed (pigweed; [10]): 10 | Wild oats plant response rating (wild oat; [1]): 0 | Wild oats plant response rating (wild oat; [3]): 3 | Wild oats plant response rating (wild oat; [4]): 0 | Wild oats plant response rating (0 to 10 scale) (wild oat; [18]): 3 | Plant response rating, Wild oats (wild oat; [6]): 3 | Wild oats plant response rating (wild oat; [7]): 5 | Wild oats plant response rating (wild oat; [8]): 0 | Plant response rating, Wild oats (wild oat; [13]): 0 | Wild oats plant response rating (wild oat; [9]): 0 | Plant response rating, Wild oats (wild oat; [10]): 7 | Corn plant response rating (corn; [1]): 0 | Corn plant response rating (corn; [2]): 0 | Corn plant response rating (corn; [3]): 0 | Corn plant response rating (corn; [4]): 0 | Plant response rating, Corn (corn; [5]): 0 | Plant response rating, Corn (corn; [6]): 0 | Corn plant response rating (corn; [7]): 0 | Corn plant response rating (corn; [8]): 0 | Corn plant response rating (corn; [9]): 0 | Plant response rating, Corn (corn; [10]): 2 | Velvetleaf plant response rating (velvetleaf; [1]): 3 | Velvetleaf plant response rating (velvetleaf; [3]): 7 | Velvetleaf plant response rating (velvetleaf; [4]): 0 | Velvetleaf plant response rating (0 to 10 scale) (velvetleaf; [18]): 0 | Plant response rating, Velvetleaf (velvetleaf; [6]): 0 | Velvetleaf plant response rating (velvetleaf; [7]): 3 | Velvetleaf plant response rating (velvetleaf; [8]): 0 | Plant response rating, Velvetleaf (velvetleaf; [13]): 3 | Velvetleaf plant response rating (velvetleaf; [9]): 5 | Plant response rating, Velvetleaf (velvetleaf; [10]): 0 | S. Flatsedge plant response rating (smallflower flatsedge; [14]): 0 | S. Flatsedge plant response rating (smallflower flatsedge; [3]): 3 | S. Flatsedge plant response rating (smallflower flatsedge; [15]): 0 | Plant response rating, S. Flatsedge (smallflower flatsedge; [17]): 0 | S. Flatsedge plant response rating (smallflower flatsedge; [16]): 2 | Wheat plant response rating (wheat; [1]): 0 | Wheat plant response rating (wheat; [3]): 2 | Wheat plant response rating (wheat; [4]): 0 | Wheat plant response rating (0 to 10 scale) (wheat; [18]): 0 | Plant response rating, Wheat (wheat; [6]): 2 | Wheat plant response rating (wheat; [7]): 2 | Wheat plant response rating (wheat; [8]): 0 | Plant response rating, Wheat (wheat; [13]): 0 | Wheat plant response rating (wheat; [9]): 0 | Plant response rating, Wheat (wheat; [10]): 2 | Sugarbeets plant response rating (sugar beet; [1]): 4 | Sugarbeets plant response rating (sugar beet; [3]): 5 | Sugarbeets plant response rating (sugar beet; [4]): 0 | Sugarbeets plant response rating (0 to 10 scale) (sugar beet; [18]): 2 | Plant response rating, Sugarbeets (sugar beet; [6]): 2 | Sugarbeets plant response rating (sugar beet; [7]): 4 | Sugarbeets plant response rating (sugar beet; [8]): 2 | Plant response rating, Sugarbeets (sugar beet; [13]): 4 | Sugarbeets plant response rating (sugar beet; [9]): 5 | Plant response rating, Sugarbeets (sugar beet; [10]): 6 | Rape plant response rating (rape; [1]): 2 | Rape plant response rating (rape; [2]): 4 | Rape plant response rating (rape; [3]): 7 | Rape plant response rating (rape; [4]): 0 | Plant response rating, Rape (rape; [5]): 0 | Plant response rating, Rape (rape; [6]): 0 | Rape plant response rating (rape; [7]): 3 | Rape plant response rating (rape; [8]): 2 | Rape plant response rating (rape; [9]): 6 | Plant response rating, Rape (rape; [10]): 6 | Cocklebur plant response rating (cocklebur; [1]): 2 | Cocklebur plant response rating (cocklebur; [2]): 2 | Cocklebur plant response rating (cocklebur; [3]): 4 | Cocklebur plant response rating (cocklebur; [4]): 0 | Plant response rating, Cocklebur (cocklebur; [5]): 0 | Plant response rating, Cocklebur (cocklebur; [6]): 0 | Cocklebur plant response rating (cocklebur; [7]): 0 | Cocklebur plant response rating (cocklebur; [8]): 0 | Cocklebur plant response rating (cocklebur; [9]): 3 | Plant response rating, Cocklebur (cocklebur; [10]): 7
